The record followed here is patent US20260242352A1, “INHIBITION OF SHIP1 AS A THERAPEUTIC STRATEGY FOR THE TREATMENT OF ALZHEIMER'S DISEASE” (The Trustees of Indiana University, priority 2022, published 2026).

One assay deals with T1, SHIP1 (Homo sapiens, UniProt Q92835).
T1 sequence (Q92835 396-858): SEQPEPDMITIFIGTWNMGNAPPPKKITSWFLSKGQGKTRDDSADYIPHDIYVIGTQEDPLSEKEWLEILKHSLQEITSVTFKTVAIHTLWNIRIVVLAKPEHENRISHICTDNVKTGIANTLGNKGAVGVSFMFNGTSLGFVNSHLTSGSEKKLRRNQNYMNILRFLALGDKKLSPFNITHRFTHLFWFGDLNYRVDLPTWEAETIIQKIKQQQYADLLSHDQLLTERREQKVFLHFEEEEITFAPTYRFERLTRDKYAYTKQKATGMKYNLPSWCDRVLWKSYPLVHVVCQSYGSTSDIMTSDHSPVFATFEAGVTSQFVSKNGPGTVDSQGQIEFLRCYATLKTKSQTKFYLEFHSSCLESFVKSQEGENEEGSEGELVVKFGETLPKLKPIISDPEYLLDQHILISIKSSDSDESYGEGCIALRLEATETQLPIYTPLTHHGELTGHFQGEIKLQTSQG
The assay can be described thus: Malachite green enzyme assay. It counts as biochemical. To be noted: Table 1; PI(3,4,5)P3-diC8 52 μM, enzyme 10 nM, SHIP1 Ptase-C2, 25° C., pH7.4; geometric mean; read-out: SHIP1 IC50 μM (n). The source says: The inventors have performed a screen of 50K compounds at the SHIP1 phosphatase, analyzed a publicly available fragment-based screen, and evaluated inhibitors reported in the literature. They utilized the malachite green assay with PtdIns(3,4,5)P3-diC8 and SHIP1 Ptase-C2 to measure inhibitory potency. A Cellular Thermal Shift Assay was used to confirm target engagement in cells. A phosphoAKT assay was used to provide additional evidence of on-target activity. A high-content imaging assay measuring phagocytosis, cell number, and nuclear intensity was implemented using the BV2 and HMC3 cell lines to characterize cellular pharmacology and cytotoxicity. […] Inhibitors predicted to have drug-like properties were subjected to assays measuring solubility, cellular permeability, and mouse microsomal stability. A physiological based pharmacokinetic model was compared to measured exposure in vivo for select compounds upon oral administration in mice.
Malachite Green Enzyme Assay. […] Compounds diluted in DMSO were added to 384-well plates. Enzyme solution was added. After a 20 min incubation period, the reaction was initiated by addition of PI(3,4,5)P3-diC8. Final compound concentrations ranged from 50 nM to 950 μM. Final reaction concentrations for the PI(3,4,5)P3-diC8 substrate and the enzyme were 52 μM and 10 nM respectively. The reaction was quenched after 10 min by adding Malachite BioMol Green (Enzo Lifesciences, PA, USA). Plates were then incubated for 30 min at room temperature. Absorbance (620 nm) was measured using a SpectraMax Me5 Microplate Reader (Molecular Devices, LLC, USA). IC50 values were calculated by fitting absorbance versus inhibitor concentration.
Compounds diluted in DMSO were added to 384-well plates. Enzyme solution was added. After a 20 min incubation period, the reaction was initiated by addition of PI(3,4,5)P3-diC8. Final compound concentrations ranged from 50 nM to 950 μM. Final reaction concentrations for the PI(3,4,5)P3-diC8 substrate and the enzyme were 52 μM and 10 nM respectively. The reaction was quenched after 10 min by adding Malachite BioMol Green (Enzo Lifesciences, PA, USA). Plates were then incubated for 30 min at room temperature. Absorbance (620 nm) was measured using a SpectraMax Me5 Microplate Reader (Molecular Devices, LLC, USA). IC50 values were calculated by fitting absorbance versus inhibitor concentration and are reported as the geometric mean and standard error of mean with the number of repeats (n) indicated. Compounds and activities are as depicted in tables 1 and 2 above.

The test system of a further assay is HMC3 cells. In words: pHrodo-myelin phagocytosis/cell health assay, HMC3 cells. Format: cell-based. To be noted: Homo sapiens, compound 48 hrs, 60 μM to 3 nM, (n) in cell. As to the method: pHrodo-myelin phagocytosis/cell health assay with microglial cells. This 384-well plate high content imaging assay was developed to quantify phagocytosis and cell health simultaneously using either BV2 or HMC3 immortalized microglial cell lines or primary microglia isolated from mouse brain. Cells were cultured in DMEM GlutaMax media (ThermoFisher) containing 10% FBS and Pen-Strep in 37° C. 5% CO2 incubator.
Day 1: Cells were plated (Corning Falcon 384 well Optilux Black and clear bottom plates for imaging) with BV2 at 400 cells/45 μl/well, HMC3 at 600 cells/45 μl/well, or primary at 2000 cell/45 μl/well.
Day 2: Cells were treated with 10× serially diluted compounds in a dose range of 60 μM to 3 nM for 48 hrs at 37° C.
Day 3: Cells were seeded with pHrodo-myelin (for total 20 hrs) 24 hrs after starting compound treatment. The pHrodo-myelin stocks were at 1 mg/ml (protein equivalent) stored in −20° C. or −80° C. freezer. Stocks were thawed and diluted with culture media into 10× seeding solution (50 μg/ml) and added 5 μl/well to 384 well cell plate.
Day 4: Cell staining and imaging. Nuclear staining solution was prepared by adding 1 μl of 10 mg/mL Hoechst-33342 to every 1 ml culture media that will be added to cell plate at 20 μl/well. The final concentration of Hoechst-33342 to cells was about 2.5 μg/ml. Cell plates were incubated for >30 min at 37° C. before imaging. Cell plates were scanned with an ArrayScan automatic high content imaging system using a 10× objective lens, 4 fields/well collected. Three measurements were obtained 1) mean total phagocytosis spot intensity per cell, 2) total cell counts per well, and 3) mean average nuclear intensity per cell for cell health.
This 384-well plate high content imaging assay was developed to quantify phagocytosis and cell health simultaneously using either BV2 or HMC3 immortalized microglial cell lines or primary microglia isolated from mouse brain. Cells were cultured in DMEM GlutaMax media (ThermoFisher) containing 10% FBS and Pen-Strep in 37° C. 5% CO2 incubator. Day 1: Cells were plated (Corning Falcon 384 well Optilux Black and clear bottom plates for imaging) with BV2 at 400 cells/45 μl/well, HMC3 at 600 cells/45 μl/well, or primary at 2000 cell/45 μl/well. Day 2: Cells were treated with 10× serially diluted compounds in a dose range of 60 μM to 3 nM for 48 hrs at 37° C. Day 3: Cells were seeded with pHrodo-myelin (for total 20 hrs) 24 hrs after starting compound treatment. The pHrodo-myelin stocks were at 1 mg/ml (protein equivalent) stored in −20° C. or −80° C. freezer. Stocks were thawed and diluted with culture media into 10× seeding solution (50 μg/ml) and added 5 μl/well to 384 well cell plate. Day 4: Cell staining and imaging. Nuclear staining solution was prepared by adding 1 μl of 10 mg/mL Hoechst-33342 to every 1 ml culture media that will be added to cell plate at 20 μl/well. The final concentration of Hoechst-33342 to cells was about 2.5 μg/ml. Cell plates were incubated for >30 min at 37° C. before imaging. Cell plates were scanned with an ArrayScan automatic high content imaging system using a 10× objective lens, 4 fields/well collected. Three measurements were obtained 1) mean total phagocytosis spot intensity per cell, 2) total cell counts per well, and 3) mean average nuclear intensity per cell for cell health.

Each structure is given as a SMILES string.

As usually defined, the IC50 is the concentration that inhibits the measured activity by half. What is called EC50 is the concentration needed to bring the measured effect to its halfway point. As for `CC(C)(C)OC(=O)N1CCC(n2cc(-c3cncc(OCc4ccccc4)c3)cn2)CC1` [Compound 4, tert-butyl 4-(4-(5-(benzyloxy)pyridin-3-yl)-1H-pyrazol-1-yl)piperidine-1-carboxylate], the IC50 at SHIP1 was determined as 90.3 µM. Also, the EC50 in the assay with HMC3 cells turned out to be 2.01 µM.

Consider `Cl.Clc1ccc(COc2cncc(-c3cnn(C4CCNCC4)c3)c2)c(Cl)c1` [Compound 10, 3-((2,4-dichlorobenzyl)oxy)-5-(1-(piperidin-4-yl)-1H-pyrazol-4-yl)pyridine hydrochloride], for which the IC50 on SHIP1 was 286 µM. Also, the EC50 with HMC3 cells came to 0.308 µM. In the case of `CC(C)(C)OC(=O)N1CCC(n2cc(-c3cncc(OCc4ccccc4Cl)c3)cn2)CC1` [Compound 1, tert-butyl 4-(4-{5-[(2-chlorophenyl)methoxy]pyridin-3-yl}-1H-pyrazol-1-yl)piperidine-1-carboxylate], it took 15.9 µM to reach a half-maximal effect with HMC3 cells (EC50). Turning to `Cc1ccccc1COc1cncc(-c2cnn(C3CCN(C(=O)OC(C)(C)C)CC3)c2)c1` [Compound 3, tert-butyl 4-(4-(5-((2-methylbenzyl)oxy)pyridin-3-yl)-1H-pyrazol-1-yl)piperidine-1-carboxylate], the half-maximal inhibitory concentration (IC50) on SHIP1 was 116 µM. In addition, the 50% effective concentration (EC50) in the assay on HMC3 cells was determined as 4.19 µM. With `C[C@@H](Oc1cncc(-c2cnn(C3CCNCC3)c2)c1)c1ccc(Cl)cc1` [Compound 23, (R)-3-(1-(4-chlorophenyl)ethoxy)-5-(1-(piperidin-4-yl)-1H-pyrazol-4-yl)pyridine], the EC50 in the assay on HMC3 cells came to 0.145 µM.

Turning to `CC(C)(C)OC(=O)N1CCC(n2cc(-c3cncc(OCc4c(Cl)cccc4Cl)c3)cn2)CC1` [Compound 5, tert-butyl 4-(4-(5-((2,6-dichlorobenzyl)oxy)pyridin-3-yl)-1H-pyrazol-1-yl)piperidine-1-carboxylate], the IC50 on SHIP1 is 35.7 µM. Moreover, the EC50 in the assay with HMC3 cells stood at 3.72 µM.

As for `CC(C)(C)OC(=O)N1CCC(n2cc(-c3cncc(OCc4ccc(Br)cc4)c3)cn2)CC1` [Compound 7, tert-butyl 4-(4-(5-((4-bromobenzyl)oxy)pyridin-3-yl)-1H-pyrazol-1-yl)piperidine-1-carboxylate], the IC50 on SHIP1 turned out to be 57 µM. The compound also registered a half-maximal effective concentration (EC50) in the assay with HMC3 cells of 2.43 µM.

As for `Cc1ccccc1COc1cncc(-c2cnn(C3CCNCC3)c2)c1` [Compound 25, 3-[(2-Methylphenyl)methoxy]-5-[1-(piperidin-4-yl)-1H-pyrazol-4-yl]pyridine], the IC50 on SHIP1 was determined as 851 µM. In the assay with HMC3 cells, the EC50 was 1.35 µM.

On to `Cl.Clc1ccccc1COc1cncc(-c2cnn(C3CCNCC3)c2)c1` [Compound 9, 3-((2-chlorobenzyl)oxy)-5-(1-(piperidin-4-yl)-1H-pyrazol-4-yl)pyridine hydrochloride], for which, at SHIP1, the IC50 was determined as 302 µM. Further, in the assay with HMC3 cells, the EC50 was 0.584 µM.

With `Clc1ccccc1COc1cccc(-c2cnn(C3CCNCC3)c2)c1` [Compound 29, 4-(4-(3-((2-chlorobenzyl)oxy)phenyl)-1H-pyrazol-1-yl)piperidine], at SHIP1, the IC50 came to 186 µM. For `Clc1ccccc1COc1cncc(-n2cc(C3CCNCC3)cn2)c1` [Compound 28, 3-((2-chlorobenzyl)oxy)-5-(4-(piperidin-4-yl)-1H-pyrazol-1-yl)pyridine], the IC50 at SHIP1 stood at 601 µM. In the assay on HMC3 cells, `C[C@H](Oc1cncc(-c2cnn(C3CCNCC3)c2)c1)c1ccccc1Cl` [Compound 21, (S)-3-(1-(2-chlorophenyl)ethoxy)-5-(1-(piperidin-4-yl)-1H-pyrazol-4-yl)pyridine] displayed a half-maximal effective concentration (EC50) of 0.722 µM. In the case of `C[C@@H](Oc1cncc(-c2cnn(C3CCNCC3)c2)c1)c1ccccc1Cl` [Compound 22, (R)-3-(1-(2-chlorophenyl)ethoxy)-5-(1-(piperidin-4-yl)-1H-pyrazol-4-yl)pyridine], the 50% inhibitory concentration (IC50) on SHIP1 worked out at 152 µM.

Regarding `CC(C)(C)CC(=O)N1CCC(n2cc(-c3cncc(OCc4ccccc4Cl)c3)cn2)CC1` [Compound 16, 1-(4-(4-(5-((2-chlorobenzyl)oxy)pyridin-3-yl)-1H-pyrazol-1-yl)piperidin-1-yl)-3,3-dimethylbutan-1-one], at SHIP1, the IC50 was found to be 102 µM. This compound also displayed an EC50 in the assay with HMC3 cells of 2.07 µM. `CC(C)(C)CCN1CCC(n2cc(-c3cncc(OCc4ccccc4Cl)c3)cn2)CC1` [Compound 15, 3-((2-chlorobenzyl)oxy)-5-(1-(1-(3,3-dimethylbutyl)piperidin-4-yl)-1H-pyrazol-4-yl)pyridine] yielded an EC50 in the assay with HMC3 cells of 2.1 µM. In the case of `CC(C)(C)OC(=O)N1CCC(n2cc(-c3cncc(OCc4ccccc4F)c3)cn2)CC1` [Compound 2, tert-butyl 4-(4-(5-((2-fluorobenzyl)oxy)pyridin-3-yl)-1H-pyrazol-1-yl)piperidine-1-carboxylate], the IC50 at SHIP1 was found to be 81.9 µM. The compound further gave an EC50 in the assay with HMC3 cells of 1.44 µM. In the case of `Clc1ccccc1COc1cncc(-c2ccn(C3CCNCC3)n2)c1` [Compound 26, 3-((2-chlorobenzyl)oxy)-5-(1-(piperidin-4-yl)-1H-pyrazol-3-yl)pyridine], on SHIP1, the IC50 came out at 690 µM. Same read-out and setting: then `Clc1ccccc1COc1cncc(-n2ccc(C3CCNCC3)n2)c1` [Compound 27, 3-((2-chlorobenzyl)oxy)-5-(3-(piperidin-4-yl)-1H-pyrazol-1-yl)pyridine], with 332 µM.
